Entries after “also recorded” stand apart in the source; their conditions may differ. Square brackets hold non-standard residues; d marks the D form. Peptide text beside a SMILES is read from it. pGlu = O=C1CC[C@@H](C(=O)O)N1

For this assay, the system named is GtH-II secretion in female gilthead seabream. The assay is described as follows: In vivo gonadotropin-releasing potency: plasma GtH-II by homologous radioimmunoassay after intramuscular injection of GnRH peptides. Particulars: for GtH-II levels, times higher than in saline-injected fish: 25 μg/kg body weight; for stimulation of GtH-II secretion (in words): reproductively mature seabream females, native peptides injected at 5 and 25 μg/kg body weight; for gonadotropin (GtH-II) secretion of sbGnRH, its analogs and the mGnRH analog compared (in words) / blood GtH-II levels, times higher than in sbGnRH-injected females: third experiment; for gonadotropin (GtH-II) secretion of sbGnRH, its analogs and the mGnRH analog compared (in words): 5 μg/kg body weight, 1.5, 4 and 8 hours post-injection. Details: species or system Sparus aurata. Here is the method:
During the spawning season, 104 female seabream at 2 years of age, weighing 458±104 g, with preovulatory oocytes of 500-600 μm in diameter were selected for experimentation. Oocyte developmental stage was determined by microscopic examination of a freshly removed ovarian biopsy, as previously described (Zohar et al., 1979, J. Fish Biol. 15:665-670). The bioactivity of the native forms of GnRH and of the GnRH analogs was studied in three consecutive experiments, carried out on day 1, day 3, and day 8. The first experiment included four groups of eight females. Three groups were injected with 5 μg/kg body weight of either sbGnRH, sGnRH or cGnRH-II. The fourth group was injected with saline. The second experiment included four similar groups, except that the peptides were injected at a dose of 25 μg/kg body weight. The third experiment included five groups, each with eight females. One group was injected with native sbGnRH; two other groups were each injected with an analog of sbGnRH, the [D-Ala^6,Pro^9 -NEt]-sbGnRH and [D-Arg^6,Pro^9 -NEt]-sbGnRH; another group was injected with the analog of the mammalian GnRH, [D-Ala^6,Pro^9 -NEt]-mGnRH; and the last group was injected with saline. All peptides in the third experiment were injected at a dose of 5 μg/kg body weight.
In all experiments, the tested peptides were injected into the dorsal musculature, in a volume of 0.5 ml/kg body weight. Each group of fish was held in a separate 600 liter tank exposed to natural photoperiod conditions and supplied with sea water at 20° C. Fish were bled before the injection of the peptides and at 1.5, 4 and 8 hours post-injection. At each bleeding time, 1 ml of blood was removed from the caudal vessels, using a 1 ml syringe fit with a 21G needle. Prior to injection and bleeding, fish were anesthetized in 0.2 ppt of 2-phenoxy-ethanol. Blood was immediately centrifuged and plasma removed and frozen. Levels of seabream GtH-II in the plasma samples were measured using a homologous and specific radioimmunoassay, as previously described (Zohar et al., 1990, Aquaculture 88:189-204). Blood GtH-II levels in the various groups were statistically compared using ANOVA followed by Duncan new multiple range comparison test.

Where [1] appears, read: 5 μg/kg body weight, 1.5 hours post-injection.
Where [2] appears, read: 5 μg/kg body weight, 4 hours after injection.
The mark [3] stands for this setting: 25 μg/kg body weight, 1.5, 4 and 8 hours post-injection.
[4] abbreviates: native GnRH forms, 5 and 25 μg/kg body weight.
[5] abbreviates: 5 μg/kg dose, 1.5 hr after injection.
Where [6] appears, read: 25 μg/kg dose, 1.5 hr after injection.

`CC(C)C[C@H](NC(=O)CNC(=O)[C@H](Cc1ccc(O)cc1)NC(=O)[C@H](CO)NC(=O)[C@H](Cc1c[nH]c2ccccc12)NC(=O)[C@H](Cc1c[nH]cn1)NC(=O)[C@@H]1CCC(=O)N1)C(=O)N[C@@H](CO)C(=O)N1CCC[C@H]1C(=O)NCC(N)=O` [sbGnRH, pGlu-His-Trp-Ser-Tyr-Gly-Leu-Ser-Pro-Gly-NH 2]: the “stimulation of GtH-II secretion (in words)” value is given as “significantly stimulate GtH-II secretion”; the “gonadotropin (GtH-II) secretion of sbGnRH, its analogs and the mGnRH analog compared (in words)” value is given as “did not induce significant release of GtH-II”. For the same molecule, the “blood GtH-II levels, times higher than in control females” value under setting [1] is on record as “tended to be higher than in the control females”. In addition, under setting [2], the “blood GtH-II levels, times higher than in control females” value is listed as “not different from control levels”. The “GtH-II-releasing potency of the native peptides compared (in words)” value (“GtH-II-releasing potency … compared (in words)” below) under setting [3] is “cGnRH-II>sGnRH>sbGnRH”. Besides, for the setting “1.5 hr after injection”, the “GtH-II levels, times higher than in saline-injected fish” value (from here on “GtH-II levels … in saline-injected fish”) stood at 4.4 times. Moreover, the “GtH-II-releasing potency … compared (in words)” value under setting [4] was “less active than cGnRH-II and sGnRH”.
Turning to `CCNC(=O)[C@@H]1CCCN1C(=O)[C@H](CO)NC(=O)[C@H](CC(C)C)NC(=O)[C@@H](CCCNC(=N)N)NC(=O)[C@H](Cc1ccc(O)cc1)NC(=O)[C@H](CO)NC(=O)[C@H](Cc1c[nH]c2ccccc12)NC(=O)[C@H](Cc1c[nH]cn1)NC(=O)[C@@H]1CCC(=O)N1` [[D-Arg^6, Pro^9 -NEt]-sbGnRH] ([pGlu]HWSY[dR]LSP-NHEt), the “blood GtH-II levels, times higher than in sbGnRH-injected females” value reads like this: (5 μg/kg body weight, 1.5 hr) 5 times; (5 μg/kg body weight, 8 hr) 2.5 times.
With `CCNC(=O)[C@@H]1CCCN1C(=O)[C@H](CO)NC(=O)[C@H](CC(C)C)NC(=O)[C@@H](C)NC(=O)[C@H](Cc1ccc(O)cc1)NC(=O)[C@H](CO)NC(=O)[C@H](Cc1c[nH]c2ccccc12)NC(=O)[C@H](Cc1c[nH]cn1)NC(=O)[C@@H]1CCC(=O)N1` [[D-Ala^6,Pro^9-.NEt]-sbGnRH, [D-Ala^6,Pro^9 -NEt]-sbGnRH] ([pGlu]HWSY[dA]LSP-NHEt), the “gonadotropin (GtH-II) secretion of sbGnRH, its analogs and the mGnRH analog compared (in words)” value is “significantly stronger gonadotropin secretion than did the native sbGnRH; also recorded: equipotent; also recorded: much less potent; also recorded: in the same range as those induced by the native sGnRH and cGnRH-II”. Further, for the setting “5 μg/kg body weight, 1.5 hr”, the “blood GtH-II levels, times higher than in sbGnRH-injected females” value stood at 5 times. Moreover, the “blood GtH-II levels, times higher than in sbGnRH-injected females” value (5 μg/kg body weight, 8 hr) came to 2.5 times.
Regarding `NC(=O)CNC(=O)[C@@H]1CCCN1C(=O)[C@H](Cc1ccc(O)cc1)NC(=O)[C@H](Cc1c[nH]c2ccccc12)NC(=O)CNC(=O)[C@H](Cc1c[nH]cn1)NC(=O)[C@H](CO)NC(=O)[C@H](Cc1c[nH]c2ccccc12)NC(=O)[C@H](Cc1c[nH]cn1)NC(=O)[C@@H]1CCC(=O)N1` [cGnRH-II, pGlu-His-Trp-Ser -His-Gly-Trp-Tyr-Pro-Gly-NH2, reference compound] ([pGlu]HWSHGWYPG-NH2), the “stimulation of GtH-II secretion (in words)” value is recorded as “significantly stimulate GtH-II secretion”. Besides, the “blood GtH-II levels, times higher than in control females” value under setting [1] was 14.50 times. Also, the “blood GtH-II levels, times higher than in control females” value under setting [2] stood at 6.2 times. For the same molecule, the “blood GtH-II levels versus control females” value (5 μg/kg body weight, 8 hours post-injection) is “higher GtH-II levels”. For the same molecule, under setting [5], the “potency in inducing GtH-II secretion, times more potent than sGnRH” value is on record as 1.75 times and the “potency in inducing GtH-II secretion, times more potent than sbGnRH” value was determined as 8 times. Besides, the “GtH-II-releasing potency … compared (in words)” value under setting [3] is “cGnRH-II>sGnRH>sbGnRH; also recorded: induced higher GtH-II secretion than did sGnRH or sbGnRH”. In addition, the “GtH-II levels … in saline-injected fish” value (1.5 hr after injection) was determined as 31.0 times. The “GtH-II levels … in saline-injected fish” value (4 hr after injection) is 10.9 times. Moreover, the “GtH-II levels … in saline-injected fish” value (8 hr after injection) is given as 5.5 times. Under setting [6], the “potency in inducing GtH-II secretion, times more potent than sGnRH” value was determined as 2 times and the “potency in inducing GtH-II secretion, times more potent than sbGnRH” value amounted to 7 times. Moreover, under setting [4], the “GtH-II-releasing potency … compared (in words)” value was “significantly more potent than the novel sbGnRH”.
